Reference: patent US20030139431A1 (priority 2001, published 2003)

How the values were obtained:
hNPFF1 [1] = target: T1, hNPFF1 (Homo sapiens, UniProt Q9GZQ6); assay: Binding affinity at cloned recombinant human NPFF1 receptor
T1 construct: expressed in transfected cells

hNPFF2 [2] = target: T2, hNPFF2 (Homo sapiens, UniProt Q9Y5X5); assay: Binding affinity at cloned recombinant human NPFF2 receptor
T2 construct: expressed in transfected cells

rNPFF1 [3] = target: T3, rNPFF1 (Rattus norvegicus, UniProt Q9EP86); assay: Binding affinity at cloned recombinant rat NPFF1 receptor
T3 construct: expressed in transfected cells

rNPFF2 [4] = target: T4, rNPFF2 (Rattus norvegicus, UniProt Q9EQD2); assay: Binding affinity at cloned recombinant rat NPFF2 receptor
T4 construct: expressed in transfected cells

hNPFF1 [5] = target: T1, hNPFF1; assay: Functional assay (agonist potency, intrinsic activity) at cloned human NPFF1 receptor; type: cell-based; details: for hNPFF1 IA (intrinsic activity): percent of maximum response elicited by neuropeptide FF, human NPFF1; for EC50: recombinant human NPFF1
Experimental: (§1) Intrinsic activity of a compound is measured as the percent of maximum response.

hNPFF2 [6] = target: T2, hNPFF2; assay: Functional assay (agonist potency, intrinsic activity) at cloned human NPFF2 receptor; type: cell-based; details: for hNPFF2 IA (intrinsic activity): percent of maximum response elicited by neuropeptide FF, human NPFF2; for EC50: recombinant human NPFF2
Experimental: as §1

rNPFF1 [7] = target: T3, rNPFF1; assay: Functional assay (agonist potency, intrinsic activity) at cloned rat NPFF1 receptor; type: cell-based; details: for rNPFF1 IA (intrinsic activity): percent of maximum response elicited by neuropeptide FF, rat NPFF1; for EC50: recombinant rat NPFF1
Experimental: as §1

rNPFF2 [8] = target: T4, rNPFF2; assay: Functional assay (agonist potency, intrinsic activity) at cloned rat NPFF2 receptor; type: cell-based; details: for rNPFF2 IA (intrinsic activity): percent of maximum response elicited by neuropeptide FF, rat NPFF2; for EC50: recombinant rat NPFF2
Experimental: as §1

T3 sequence (Q9EP86 whole entry): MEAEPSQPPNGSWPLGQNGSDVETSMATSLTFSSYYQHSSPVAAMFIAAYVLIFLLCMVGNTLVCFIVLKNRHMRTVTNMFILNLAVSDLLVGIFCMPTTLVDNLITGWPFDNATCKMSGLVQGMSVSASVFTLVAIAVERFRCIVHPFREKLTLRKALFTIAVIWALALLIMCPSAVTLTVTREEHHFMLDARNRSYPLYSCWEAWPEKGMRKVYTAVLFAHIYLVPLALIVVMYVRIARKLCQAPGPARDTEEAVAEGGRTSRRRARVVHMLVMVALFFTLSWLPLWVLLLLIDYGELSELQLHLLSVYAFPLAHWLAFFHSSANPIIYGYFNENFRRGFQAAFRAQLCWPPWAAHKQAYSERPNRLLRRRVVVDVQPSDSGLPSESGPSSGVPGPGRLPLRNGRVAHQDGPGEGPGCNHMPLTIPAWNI
T4 sequence (Q9EQD2 whole entry): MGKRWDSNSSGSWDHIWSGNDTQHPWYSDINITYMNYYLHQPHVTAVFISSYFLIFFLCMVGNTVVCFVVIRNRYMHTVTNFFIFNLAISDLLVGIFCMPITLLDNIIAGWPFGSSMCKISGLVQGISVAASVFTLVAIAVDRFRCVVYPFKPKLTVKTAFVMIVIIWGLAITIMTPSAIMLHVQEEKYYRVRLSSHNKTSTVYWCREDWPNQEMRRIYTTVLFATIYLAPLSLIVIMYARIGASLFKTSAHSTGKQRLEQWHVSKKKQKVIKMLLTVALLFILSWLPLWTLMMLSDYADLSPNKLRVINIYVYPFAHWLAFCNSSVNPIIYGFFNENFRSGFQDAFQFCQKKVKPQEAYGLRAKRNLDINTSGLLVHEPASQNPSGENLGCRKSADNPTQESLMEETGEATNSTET
T2 sequence (Q9Y5X5 103-522): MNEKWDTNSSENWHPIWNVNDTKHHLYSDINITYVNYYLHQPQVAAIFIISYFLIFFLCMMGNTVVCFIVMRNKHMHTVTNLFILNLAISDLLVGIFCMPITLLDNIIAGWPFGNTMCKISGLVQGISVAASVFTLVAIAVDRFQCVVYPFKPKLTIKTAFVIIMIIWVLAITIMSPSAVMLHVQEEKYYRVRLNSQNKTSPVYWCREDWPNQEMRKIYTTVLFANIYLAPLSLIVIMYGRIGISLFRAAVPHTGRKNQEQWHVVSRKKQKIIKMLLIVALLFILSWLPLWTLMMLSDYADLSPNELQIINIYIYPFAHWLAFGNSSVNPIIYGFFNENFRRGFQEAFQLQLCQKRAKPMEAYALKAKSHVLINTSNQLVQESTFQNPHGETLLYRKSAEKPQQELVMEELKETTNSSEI
T1 sequence (Q9GZQ6 whole entry): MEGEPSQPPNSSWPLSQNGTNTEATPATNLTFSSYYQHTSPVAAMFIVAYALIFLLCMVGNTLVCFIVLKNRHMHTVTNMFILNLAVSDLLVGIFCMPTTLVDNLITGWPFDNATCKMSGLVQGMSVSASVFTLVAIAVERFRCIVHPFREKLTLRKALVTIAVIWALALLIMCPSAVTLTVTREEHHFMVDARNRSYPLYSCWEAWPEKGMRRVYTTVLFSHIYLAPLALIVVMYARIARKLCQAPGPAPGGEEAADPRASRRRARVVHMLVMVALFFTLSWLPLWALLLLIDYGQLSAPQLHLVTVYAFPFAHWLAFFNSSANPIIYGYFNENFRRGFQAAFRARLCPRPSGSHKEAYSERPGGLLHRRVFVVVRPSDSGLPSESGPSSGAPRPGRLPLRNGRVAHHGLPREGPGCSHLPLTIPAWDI

| SMILES | Ki (hNPFF1 [1]) | Ki (hNPFF2 [2]) | Ki (rNPFF1 [3]) | Ki (rNPFF2 [4]) | hNPFF1 IA (intrinsic activity) (hNPFF1 [5]) | EC50 (hNPFF1 [5]) | hNPFF2 IA (intrinsic activity) (hNPFF2 [6]) | EC50 (hNPFF2 [6]) | rNPFF1 IA (intrinsic activity) (rNPFF1 [7]) | EC50 (rNPFF1 [7]) | rNPFF2 IA (intrinsic activity) (rNPFF2 [8]) | EC50 (rNPFF2 [8]) |
| --- | --- | --- | --- | --- | --- | --- | --- | --- | --- | --- | --- | --- |
| Cc1nc(NC(=N)N)nc2ccccc12 [Compound 1001, N-(4-methyl-2-quinazolinyl)guanidine] | 240 nM | 2040 nM | 202 nM | > 10000 nM |  |  |  |  | Inactive | > 10000 nM | 16% NPFF | 3080 nM |
| Cc1nc(NC(=N)N)nc2cc(OCc3ccccc3)ccc12 [Compound 1006, N-[7-(benzyloxy)-4-methyl-2-quinazolinyl]guanidine] |  |  | 410 nM | 1070 nM |  |  |  |  | 15% NPFF | > 10000 nM | 22% NPFF | 1080 nM |
| CCOc1ccc2c(C)nc(NC(=N)N)nc2c1 [Compound 1024, N-(7-ethoxy-4-methyl-2-quinazolinyl)guanidine] |  |  | 659 nM | 5590 nM |  |  |  |  | Inactive | > 10000 nM | Inactive | > 10000 nM |
| Cc1nc(NC(=N)N)nc2ccc(Oc3ccccc3)cc12 [Compound 1032, N-(4-methyl-6-phenoxy-2-quinazolinyl)guanidine] |  |  | 291 nM | 1640 nM |  |  |  |  | 31% NPFF | 374 nM | 93% NPFF | 459 nM |
| Cc1nc(NC(=N)N)nc2ccc(CCCC(C)O)cc12 (stereo not drawn) [Compound 1034, N-(6-[1-(4-hydroxyl-pentyl)]-4-methyl-2-quinazolino)guanidine] |  |  | 82 nM | 1540 nM |  |  |  |  | 63% NPFF | 610 nM | 101% NPFF | 394 nM |
| CCCc1ccc2nc(NC(=N)N)nc(C)c2c1 [Compound 1008, N-(4-methyl-6-propyl-2-quinazolinyl)guanidine] |  |  | 155 nM | 1120 nM |  |  |  |  | Inactive | > 10000 nM | 85% NPFF | 619 nM |
| Cc1nc(NC(=N)N)nc2ccc3ccccc3c12 [Compound 1007, N-(1-methylbenzo[f]quinazolin-3-yl)guanidine] | 53 nM | 260 nM | 146 nM | 699 nM |  |  |  |  | Inactive | > 10000 nM | 66% NPFF | 1300 nM |
| Cc1nc(NC(=N)N)nc2cc(Br)ccc12 [Compound 1014, N-(7-bromo-4-methyl-2-quinazolinyl)guanidine] |  |  | 300 nM | 3440 nM |  |  |  |  | Inactive | > 10000 nM | 47% NPFF | 2460 nM |
| Cc1nc(NC(=N)N)nc2ccc(OC(F)(F)F)cc12 [Compound 1030, N-[4-methyl-6-(trifluoromethoxy)-2-quinazolinyl]guanidine] |  |  | 176 nM | 4860 nM |  |  |  |  | Inactive | > 10000 nM | 85% NPFF | 625 nM |

Next, values leading:

| Ki (hNPFF1 [1]) | Ki (hNPFF2 [2]) | Ki (rNPFF1 [3]) | Ki (rNPFF2 [4]) | hNPFF1 IA (intrinsic activity) (hNPFF1 [5]) | EC50 (hNPFF1 [5]) | hNPFF2 IA (intrinsic activity) (hNPFF2 [6]) | EC50 (hNPFF2 [6]) | rNPFF1 IA (intrinsic activity) (rNPFF1 [7]) | EC50 (rNPFF1 [7]) | rNPFF2 IA (intrinsic activity) (rNPFF2 [8]) | EC50 (rNPFF2 [8]) | SMILES |
| --- | --- | --- | --- | --- | --- | --- | --- | --- | --- | --- | --- | --- |
| 40 nM | 460 nM | 30 nM | 569 nM | Inactive | > 10000 nM | 75% NPFF | 1710 nM | 41% NPFF | 157 nM | 90% NPFF | 259 nM | CCCCCc1ccc2nc(NC(=N)N)cc(C)c2c1 [Compound 5002, N-(4-methyl-6-pentyl-2-quinolinyl)guanidine] |
| 23 nM | 374 nM | 11 nM | 433 nM | Inactive | > 10000 nM | Inactive | > 10000 nM | Inactive | > 10000 nM | Inactive | > 10000 nM | Cc1cc(NC(=N)N)nc2ccccc12 [Compound 6001, N-(4-methyl-2-quinolinyl)guanidine] |
| 144 nM | 826 nM | 153 nM | 871 nM |  |  |  |  | Inactive | > 10000 nM | 70% NPFF | 3160 nM | Cc1cc(NC(=N)N)nc2ccc3ccccc3c12 [Compound 4009, N-(1-methylbenzo[f]quinolin-3-yl)guanidine] |
| 157 nM | 952 nM | 91 nM | 883 nM |  |  |  |  | Inactive | > 10000 nM | Inactive | > 10000 nM | Cc1cc(NC(=N)N)nc2c(C)cccc12 [Compound 6002, N-(4,8-dimethyl-2-quinolinyl)guanidine] |
| 207 nM | 2120 nM | 176 nM | 1250 nM |  |  |  |  | Inactive | > 10000 nM | 26% NPFF | 3160 nM | Cc1cc(NC(=N)N)nc2ccc(-c3ccccc3)cc12 [Compound 4003, N-(4-methyl-6-phenyl-2-quinolinyl)guanidine] |
| 28 nM | 113 nM | 21 nM | 203 nM |  |  |  |  | Inactive | > 10000 nM | Inactive | > 10000 nM | CCc1cc(NC(=N)N)nc2cc(C)ccc12 [Compound 6003, N-(4-ethyl-7-methyl-2-quinolinyl)guanidine] |
| 21 nM | 150 nM | 30 nM | 556 nM |  |  |  |  | Inactive | > 10000 nM | 68% NPFF | 404 nM | Cc1ccc2nc(NC(=N)N)cc(C)c2c1 [Compound 4001, N-(4,6-dimethyl-2-quinolinyl)guanidine] |
| 113 nM | 1210 nM | 153 nM | 2580 nM |  |  |  |  | Inactive | > 10000 nM | 65% NPFF | 1530 nM | COc1ccc2nc(NC(=N)N)cc(C)c2c1 [Compound 4004, N-(6-methoxy-4-methyl-2-quinolinyl)guanidine] |
|  |  | 24 nM | 115 nM |  |  |  |  | 28% NPFF | 123 nM | 82% NPFF | 69 nM | CCCCc1ccc2nc(NC(=N)N)cc(C)c2c1 [Compound 5001, N-(6-butyl-4-methyl-2-quinolinyl)guanidine] |
| 82 nM | 514 nM | 64 nM | 882 nM |  |  |  |  | Inactive | > 10000 nM | 65% NPFF | 411 nM | Cc1cc(C)c2c(C)cc(NC(=N)N)nc2c1 [Compound 4008, N-(4,5,7-trimethyl-2-quinolinyl)guanidine] |
|  |  | 392 nM | 262 nM |  |  |  |  | 40% NPFF | 194 nM | 101% NPFF | 124 nM | CCCCc1ccc2nc(NC(=N)N)nc(C)c2c1 [Compound 2004, N-(6-butyl-4-methyl-2-quinazolinyl)guanidine] |
